Measured values: the NIST ThermoML archive (doi:10.1021/je400486p)
± gives the expanded uncertainty stated by the source.

Experiments:
[1] = 101.3 kPa, Liquid; for viscosity: Concentric cylinders viscometry; for mass density: Vibrating tube method
[2] = refractive index (Na D-line) (dimensionless); details: 101.33 kPa, Liquid, Standard Abbe refractometry

Structure (SMILES)	viscosity ([1]; 288.15 K)	mass density ([1]; 288.15 K)	viscosity ([1]; 293.15 K)	mass density ([1]; 293.15 K)	viscosity ([1]; 298.15 K)	mass density ([1]; 298.15 K)	viscosity ([1]; 303.15 K)	mass density ([1]; 303.15 K)	viscosity ([1]; 308.15 K)	mass density ([1]; 308.15 K)	viscosity ([1]; 313.15 K)	mass density ([1]; 313.15 K)	viscosity ([1]; 318.15 K)	mass density ([1]; 318.15 K)	viscosity ([1]; 323.15 K)	mass density ([1]; 323.15 K)	refractive index ([2]; 288.15 K)	refractive index ([2]; 293.15 K)	refractive index ([2]; 298.15 K)	refractive index ([2]; 303.15 K)	other results
COCCOCCOCCOCCOC [2,5,8,11,14-pentaoxapentadecane]	4.341 ± 0.051 mPa·s	1015.63 ± 0.24 kg/m3	3.834 ± 0.045 mPa·s	1011 ± 0.24 kg/m3	3.38 ± 0.04 mPa·s	1006.36 ± 0.23 kg/m3	3.004 ± 0.036 mPa·s	1001.73 ± 0.23 kg/m3	2.691 ± 0.032 mPa·s	997.104 ± 0.23 kg/m3	2.426 ± 0.029 mPa·s	992.481 ± 0.23 kg/m3	2.199 ± 0.026 mPa·s	987.859 ± 0.23 kg/m3	2.006 ± 0.024 mPa·s	983.234 ± 0.23 kg/m3	1.4345 ± 0.00037	1.43238 ± 0.00037	1.43027 ± 0.00037	1.42815 ± 0.00037	refractive index ([2]; 308.15 K): 1.42603 ± 0.00037; refractive index ([2]; 313.15 K): 1.42394 ± 0.00037; refractive index ([2]; 318.15 K): 1.42183 ± 0.00037; refractive index ([2]; 323.15 K): 1.41973 ± 0.00037
CN1CCCC1=O [N-methylpyrrolidone]	1.99 ± 0.023 mPa·s	1037.3 ± 0.26 kg/m3	1.823 ± 0.021 mPa·s	1032.84 ± 0.26 kg/m3	1.679 ± 0.019 mPa·s	1028.38 ± 0.25 kg/m3	1.555 ± 0.018 mPa·s	1023.92 ± 0.25 kg/m3	1.444 ± 0.017 mPa·s	1019.46 ± 0.24 kg/m3	1.346 ± 0.016 mPa·s	1015 ± 0.24 kg/m3	1.259 ± 0.015 mPa·s	1010.53 ± 0.24 kg/m3	1.182 ± 0.014 mPa·s	1006.06 ± 0.23 kg/m3	1.47166 ± 0.00037	1.46952 ± 0.00037	1.46736 ± 0.00037	1.4652 ± 0.00037	refractive index ([2]; 308.15 K): 1.46306 ± 0.00037; refractive index ([2]; 313.15 K): 1.46095 ± 0.00037; refractive index ([2]; 318.15 K): 1.45891 ± 0.00037; refractive index ([2]; 323.15 K): 1.4568 ± 0.00037
